Measured values as given in PubChem BioAssay AID256 (DTP/NCI, 2004).
Values joined by “and” are separate entries in the source; they are usually repeats but may differ in a detail not shown here. Equal values may be shown once. Toxic doses and inconclusive results are not listed.

System: CD2F1 mice, L1210 leukemia ip, survival T/C
Test: NCI In Vivo Anticancer Drug Screen. Data for tumor model L1210 Leukemia (intraperitoneal) in CD2F1 (CDF1) mice
Settings: higher = longer survival
Outline: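 Transplantable tumor in mice; compound-treated vs vehicle-treated groups. Read-out = treated/control ratio of the measured endpoint.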

[1] = endpoint: mean survival time, dose: 100.0 mg/kg/injection, schedule: Q04DX003 (ip), vehicle: saline with Tween-80
[2] = endpoint: mean survival time, dose: 200.0 mg/kg/injection, schedule: Q04DX003 (ip), vehicle: saline with Tween-80
[3] = endpoint: mean survival time, dose: 400.0 mg/kg/injection, schedule: Q04DX003 (ip), vehicle: saline with Tween-80
[4] = endpoint: mean survival time, dose: 50.0 mg/kg/injection, schedule: Q04DX003 (ip), vehicle: saline
[5] = endpoint: mean survival time, dose: 100.0 mg/kg/injection, schedule: Q04DX003 (ip), vehicle: saline
[6] = endpoint: mean survival time, dose: 200.0 mg/kg/injection, schedule: Q04DX003 (ip), vehicle: saline
[7] = endpoint: mean survival time, dose: 100.0 mg/kg/injection, schedule: Q01DX009 (ip), vehicle: saline with Tween-80
[8] = endpoint: mean survival time, dose: 200.0 mg/kg/injection, schedule: Q01DX009 (ip), vehicle: saline with Tween-80
[9] = endpoint: mean survival time, dose: 400.0 mg/kg/injection, schedule: Q01DX009 (ip), vehicle: saline with Tween-80
[10] = endpoint: mean survival time, dose: 50.0 mg/kg/injection, schedule: Q01DX009 (ip), vehicle: acetone

For `c1ccc2c(c1)Oc1ccccc1C2C1c2ccccc2Oc2ccccc21`, the T/C [1] was 100 % of control, the T/C [2] was 100 % of control and the T/C [3] was 116 % of control.

With `c1ccc(OP(Oc2ccccc2)Oc2ccccc2)cc1` the T/C [4] was 98 % of control, the T/C [5] was 104 % of control and the T/C [6] was 96 % of control.

With `NC(=O)NC1CCCC1` the T/C [7] was 107 % of control, the T/C [8] was 107 % of control and the T/C [9] was 107 % of control.

`CC1=NC2(CCCCC2)C[N+]1(Cc1ccccc1)Cc1ccccc1` was tested, and the T/C (endpoint: mean survival time, dose: 25.0 mg/kg/injection, schedule: Q01DX009 (ip), vehicle: acetone) was 101 % of control and the T/C [10] was 97 % of control.

With `O=C(c1ccccc1)N(N=C(c1ccc([N+](=O)[O-])cc1)c1ccc([N+](=O)[O-])cc1)c1ccccc1` the T/C [1] was 93 % of control and the T/C [3] was 87 % of control.

`O=C(NCCCl)Nc1ncn[nH]1` was tested, and the T/C [1] was 95 % of control, the T/C [2] was 98 % of control and the T/C [3] was 96 % of control.

In the case of `CC[C@@]1(OC(=O)C(N)CCCCN)C(=O)OCc2c1cc1n(c2=O)Cc2cc3ccccc3nc2-1` (some centres undefined), the T/C (endpoint: median survival time, dose: 7.29 mg/kg/injection, schedule: Q04DX002 (ip), vehicle: water) is reported as 114 % of control, the T/C (endpoint: median survival time, dose: 10.94 mg/kg/injection, schedule: Q04HX004 (iv), vehicle: water) is reported as 165 % of control and 178 % of control and the T/C (endpoint: median survival time, dose: 14.58 mg/kg/injection, schedule: Q04DX002 (ip), vehicle: water) is reported as 122 % of control. The T/C (endpoint: median survival time, dose: 21.87 mg/kg/injection, schedule: Q04HX004 (iv), vehicle: water) was 197 % of control and 201 % of control, the T/C (endpoint: median survival time, dose: 29.17 mg/kg/injection, schedule: Q04DX002 (ip), vehicle: water) was 188 % of control and 204 % of control and the T/C (endpoint: median survival time, dose: 58.33 mg/kg/injection, schedule: Q04DX002 (ip), vehicle: water) was 231 % of control and 253 % of control. The T/C (endpoint: median survival time, dose: 116.7 mg/kg/injection, schedule: Q04DX002 (ip), vehicle: water) was 214 % of control.

`C#CCOCCC(=O)O` was tested, and the T/C [10] was 102 % of control, the T/C (endpoint: mean survival time, dose: 100.0 mg/kg/injection, schedule: Q01DX009 (ip), vehicle: acetone) was 100 % of control and the T/C (endpoint: mean survival time, dose: 200.0 mg/kg/injection, schedule: Q01DX009 (ip), vehicle: acetone) was 97 % of control.

`CC(C)(C)C(=O)CC(=O)C(C)(C)C.CC(C)(C)C(=O)CC(=O)C(C)(C)C.[Cu]` was tested, and the T/C (endpoint: mean survival time, dose: 9.5 mg/kg/injection, schedule: Q01DX009 (ip), vehicle: saline with Tween-80) was 98 % of control, the T/C (endpoint: mean survival time, dose: 9.5 mg/kg/injection, schedule: Q04DX003 (ip), vehicle: saline with Tween-80) was 90 % of control and the T/C (endpoint: mean survival time, dose: 19.0 mg/kg/injection, schedule: Q01DX009 (ip), vehicle: saline with Tween-80) was 102 % of control. The T/C (endpoint: mean survival time, dose: 19.0 mg/kg/injection, schedule: Q04DX003 (ip), vehicle: saline with Tween-80) was 90 % of control and the T/C (endpoint: mean survival time, dose: 38.0 mg/kg/injection, schedule: Q04DX003 (ip), vehicle: saline with Tween-80) was 91 % of control.

`CCCCN(CCCC)CCC(=O)OCC` was tested, and the T/C [7] was 101 % of control, the T/C [8] was 95 % of control and the T/C [9] was 112 % of control.

In the case of `CC[O+](CC)CC`, the T/C (endpoint: mean survival time, dose: 12.5 mg/kg/injection, schedule: Q04DX002 (ip), vehicle: saline) is reported as 95 % of control, the T/C (endpoint: mean survival time, dose: 25.0 mg/kg/injection, schedule: Q04DX002 (ip), vehicle: saline) is reported as 91 % of control and the T/C (endpoint: mean survival time, dose: 50.0 mg/kg/injection, schedule: Q04DX002 (ip), vehicle: saline) is reported as 95 % of control.

With `Nc1ccc(-c2nc(-c3ccccc3)c(-c3ccccc3)[nH]2)cc1` the T/C (endpoint: mean survival time, dose: 12.5 mg/kg/injection, schedule: Q01DX001 (ip), vehicle: saline with Tween-80) was 94 % of control, the T/C (endpoint: mean survival time, dose: 25.0 mg/kg/injection, schedule: Q01DX001 (ip), vehicle: saline with Tween-80) was 102 % of control and the T/C (endpoint: mean survival time, dose: 50.0 mg/kg/injection, schedule: Q01DX001 (ip), vehicle: saline with Tween-80) was 102 % of control. The T/C (endpoint: mean survival time, dose: 400.0 mg/kg/injection, schedule: Q01DX001 (ip), vehicle: saline with Tween-80) was 87 % of control.

For `CC(=O)Nc1ccc2c(Nc3ccc(NS(C)(=O)=O)cc3)c3ccccc3nc2c1`, the T/C (endpoint: mean survival time, dose: 8.0 mg/kg/injection, schedule: Q01DX009 (ip), vehicle: saline with Tween-80) was 192 % of control, the T/C (endpoint: mean survival time, dose: 12.0 mg/kg/injection, schedule: Q01DX009 (ip), vehicle: saline with Tween-80) was 203 % of control and the T/C (endpoint: mean survival time, dose: 18.0 mg/kg/injection, schedule: Q01DX009 (ip), vehicle: saline with Tween-80) was 105 % of control. For the same molecule, the T/C [5] was 122 % of control and the T/C [6] was 101 % of control.

`CCN(CC)c1ccc(N=Nc2cc(Cl)ccc2Cl)c(NC(=O)CSC(C)=O)c1` was tested, and the T/C (endpoint: mean survival time, dose: 100.0 mg/kg/injection, schedule: Q04DX003 (ip), vehicle: other) was 94 % of control, the T/C (endpoint: mean survival time, dose: 200.0 mg/kg/injection, schedule: Q04DX003 (ip), vehicle: other) was 100 % of control and the T/C (endpoint: mean survival time, dose: 400.0 mg/kg/injection, schedule: Q04DX003 (ip), vehicle: other) was 97 % of control.

`CCSc1nc(N)c2ncn(C3OC(CO)C(O)C3O)c2n1` (centres undefined) was tested, and the T/C (endpoint: median survival time, dose: 10.0 mg/kg/injection, schedule: Q01DX005 (ip), vehicle: saline with Tween-80) was 103 % of control, the T/C (endpoint: median survival time, dose: 20.0 mg/kg/injection, schedule: Q01DX005 (ip), vehicle: saline with Tween-80) was 100 % of control and the T/C (endpoint: median survival time, dose: 40.0 mg/kg/injection, schedule: Q01DX005 (ip), vehicle: saline with Tween-80) was 91 % of control. For the same molecule, the T/C (endpoint: median survival time, dose: 80.0 mg/kg/injection, schedule: Q01DX005 (ip), vehicle: saline with Tween-80) was 88 % of control and the T/C (endpoint: median survival time, dose: 160.0 mg/kg/injection, schedule: Q01DX005 (ip), vehicle: saline with Tween-80) was 93 % of control.

With `O=c1[nH]nc([O-])c2c1[n+](Cc1ccccc1)cn2Cc1ccccc1` the T/C (endpoint: mean survival time, dose: 9.4 mg/kg/injection, schedule: Q01DX005 (ip), vehicle: water) was 94 % of control, the T/C (endpoint: mean survival time, dose: 18.8 mg/kg/injection, schedule: Q01DX005 (ip), vehicle: water) was 98 % of control and the T/C (endpoint: mean survival time, dose: 37.5 mg/kg/injection, schedule: Q01DX005 (ip), vehicle: water) was 91 % of control. For the same molecule, the T/C (endpoint: mean survival time, dose: 75.0 mg/kg/injection, schedule: Q01DX005 (ip), vehicle: water) was 88 % of control.

With `CCN1/C(=C/C=C/c2oc3ccc4ccccc4c3[n+]2CC)Oc2ccc3ccccc3c21` the T/C (endpoint: mean survival time, dose: 9.5 mg/kg/injection, schedule: Q01DX001 (ip), vehicle: other) was 104 % of control, the T/C (endpoint: mean survival time, dose: 19.0 mg/kg/injection, schedule: Q01DX001 (ip), vehicle: other) was 112 % of control and the T/C (endpoint: mean survival time, dose: 38.0 mg/kg/injection, schedule: Q01DX001 (ip), vehicle: other) was 118 % of control.

`CCN(CC)C(C)COC(=O)c1ccc(N)cc1` (centres undefined) was tested, and the T/C (endpoint: mean survival time, dose: 12.5 mg/kg/injection, schedule: Q04DX003 (ip), vehicle: saline) was 103 % of control, the T/C (endpoint: mean survival time, dose: 25.0 mg/kg/injection, schedule: Q04DX003 (ip), vehicle: saline) was 103 % of control and the T/C [4] was 111 % of control.

For `O=S(=O)(OC1CCCCC1Cl)c1ccc(Br)cc1` (centres undefined), the T/C [1] was 102 % of control, the T/C [2] was 94 % of control and the T/C [3] was 94 % of control.

In the case of `OCC1OC(n2cnc3c(Cl)ncnc32)C(O)C1O` (centres undefined), the T/C (endpoint: mean survival time, dose: 12.5 mg/kg/injection, schedule: Q01DX009 (ip), vehicle: saline) is reported as 86 % of control, the T/C (endpoint: mean survival time, dose: 25.0 mg/kg/injection, schedule: Q01DX009 (ip), vehicle: saline) is reported as 93 % of control and the T/C (endpoint: mean survival time, dose: 50.0 mg/kg/injection, schedule: Q01DX009 (ip), vehicle: saline) is reported as 93 % of control. For the same molecule, the T/C (endpoint: mean survival time, dose: 62.0 mg/kg/injection, schedule: Q01DX Z (ip), vehicle: carboxymethylcellulose (CMC)) was 97 % of control, the T/C (endpoint: mean survival time, dose: 100.0 mg/kg/injection, schedule: Q01DX009 (ip), vehicle: saline) was 98 % of control and the T/C (endpoint: mean survival time, dose: 125.0 mg/kg/injection, schedule: Q01DX Z (ip), vehicle: carboxymethylcellulose (CMC)) was 102 % of control. For the same molecule, the T/C (endpoint: mean survival time, dose: 200.0 mg/kg/injection, schedule: Q01DX009 (ip), vehicle: saline) was 92 % of control, the T/C (endpoint: mean survival time, dose: 250.0 mg/kg/injection, schedule: Q01DX Z (ip), vehicle: carboxymethylcellulose (CMC)) was 100 % of control and the T/C (endpoint: mean survival time, dose: 400.0 mg/kg/injection, schedule: Q01DX009 (ip), vehicle: saline) was 98 % of control. For the same molecule, the T/C (endpoint: mean survival time, dose: 500.0 mg/kg/injection, schedule: Q01DX Z (ip), vehicle: carboxymethylcellulose (CMC)) was 96 % of control, the T/C (endpoint: median survival time, dose: 62.5 mg/kg/injection, schedule: Q01DX009 (ip), vehicle: saline) was 94 % of control and 100 % of control and the T/C (endpoint: median survival time, dose: 125.0 mg/kg/injection, schedule: Q01DX009 (ip), vehicle: saline) was 100 % of control. The T/C (endpoint: median survival time, dose: 250.0 mg/kg/injection, schedule: Q01DX009 (ip), vehicle: saline) was 88 % of control and 100 % of control and the T/C (endpoint: median survival time, dose: 500.0 mg/kg/injection, schedule: Q01DX009 (ip), vehicle: saline) was 88 % of control.

In the case of `O=[N+]([O-])c1ccc(Sc2ccc(Cl)cc2)cc1`, the T/C (endpoint: mean survival time, dose: 100.0 mg/kg/injection, schedule: Q01DX001 (ip), vehicle: other) is reported as 95 % of control, the T/C [7] is reported as 98 % of control and the T/C [1] is reported as 104 % of control. For the same molecule, the T/C (endpoint: mean survival time, dose: 200.0 mg/kg/injection, schedule: Q01DX001 (ip), vehicle: other) was 102 % of control, the T/C [8] was 98 % of control and the T/C [2] was 95 % of control. For the same molecule, the T/C (endpoint: mean survival time, dose: 400.0 mg/kg/injection, schedule: Q01DX001 (ip), vehicle: other) was 107 % of control and the T/C [3] was 103 % of control.
